Active and inactive are the calls of the source. The calls are words filed in the database; no cut-off is given here.
Columns and labels:
Mus musculus [1] = test: Mean survival time against Plasmodium yoelii in mice (Mus musculus) which died during 28-day observation period at 96 mg/kg/day intramuscularly; type: functional; conditions: route intramuscular
Mus musculus [2] = test: Mean survival time against Plasmodium yoelii in mice (Mus musculus) which died during 28-day observation period at 96 mg/kg/day orally; type: functional; conditions: route oral
Mus musculus [3] = test: In vivo antimalarial activity against Plasmodium yoelii in mice (Mus musculus) at 96 mg/kg/day intramuscularly on day 4 expressed as percent suppression; type: functional; conditions: route intramuscular
Mus musculus [4] = test: In vivo antimalarial activity against Plasmodium yoelii in mice (Mus musculus) at 96 mg/kg/day orally on day 4 expressed as percent suppression; type: functional; conditions: route oral
[5] = Number of survivals against Plasmodium yoelii in mice (Mus musculus) (out of 5) at 96 mg/kg/day intramuscularly on day 28; type: organism-based; set-up: route intramuscular; conditions: in vivo, im
[6] = Number of survivals against Plasmodium yoelii in mice (Mus musculus) (out of 5) at 96 mg/kg/day orally on day 28; type: organism-based; set-up: route oral; conditions: in vivo, po
Mus musculus [7] = test: Mean survival time against Plasmodium yoelii in mice (Mus musculus) which died during 28-day observation period at 24 mg/kg/day orally; type: functional; conditions: route oral
Mus musculus [8] = test: Mean survival time against Plasmodium yoelii in mice (Mus musculus) which died during 28-day observation period at 48 mg/kg/day orally; type: functional; conditions: route oral
Mus musculus [9] = test: In vivo antimalarial activity against Plasmodium yoelii in mice (Mus musculus) at 24 mg/kg/day orally on day 4 expressed as percent suppression; type: functional; conditions: route oral
Mus musculus [10] = test: In vivo antimalarial activity against Plasmodium yoelii in mice (Mus musculus) at 48 mg/kg/day orally on day 4 expressed as percent suppression; type: functional; conditions: route oral
[11] = Number of survivals against Plasmodium yoelii in mice (Mus musculus) (out of 5) at 48 mg/kg/day orally on day 28; type: organism-based; set-up: route oral; conditions: in vivo, po
[12] = Number of survivals against Plasmodium yoelii in mice (Mus musculus) (out of 5) at 24 mg/kg/day orally on day 28; type: organism-based; set-up: route oral; conditions: in vivo, po
Mus musculus [13] = test: In vivo antimalarial activity against Plasmodium yoelii in mice (Mus musculus) at 96 mg/kg/day intramuscularly on day 4 expressed as percent suppression; No suppression; type: functional, organism-based
Mus musculus [14] = test: Percent suppression against Plasmodium yoelii in mice (Mus musculus) at 24 mg/kg/day orally on day 4; type: functional; conditions: route oral
Mus musculus [15] = test: Percent suppression against Plasmodium yoelii in mice (Mus musculus) at 96 mg/kg/day intramuscularly on day 4; type: functional; conditions: route intramuscular

SMILES: C=C(c1ccccc1)C1COC2(CCC(Nc3ccc(NC(C)=O)cc3)CC2)OO1 (stereo not given)
- MST (Mus musculus [1]): 9 days
- MST (Mus musculus [2]): 9.8 days
- Suppression (Mus musculus [3]): 98%
- Suppression (Mus musculus [4]): 77%
- No. of survivals [5]: 0
- No. of survivals [6]: 0

SMILES: C=C(c1ccc(-c2ccccc2)cc1)C1COC2(CCC(Nc3ccc(NC(C)=O)cc3)CC2)OO1 (stereo not given)
- MST (Mus musculus [1]): 11.6 days
- MST (Mus musculus [2]): 8.4 days
- Suppression (Mus musculus [3]): 90%
- Suppression (Mus musculus [4]): 49%
- No. of survivals [5]: 0
- No. of survivals [6]: 0

SMILES: C=C(c1ccccc1)C1COC2(CCC(Nc3ccc(OC)cc3)CC2)OO1 (stereo not given)
- MST (Mus musculus [1]): 10.8 days
- MST (Mus musculus [2]): 12.4 days
- Suppression (Mus musculus [3]): 63%
- Suppression (Mus musculus [4]): 93%
- No. of survivals [5]: 0
- No. of survivals [6]: 0

SMILES: C=C(c1ccc(-c2ccccc2)cc1)C1COC2(CCC(=O)CC2)OO1 (stereo not given)
- MST (Mus musculus [1]): 17.7 days
- MST (Mus musculus [2]): 10.2 days
- Suppression (Mus musculus [3]): 100%
- Suppression (Mus musculus [4]): 92%
- No. of survivals [5]: 1
- No. of survivals [6]: 0

SMILES: CCN(CC)CCCC(C)Nc1ccnc2cc(Cl)ccc12 (stereo not given) [CHLOROQUINE]
- MST (Mus musculus [7]): 14.8 days
- MST (Mus musculus [8]): 17.6 days
- Suppression (Mus musculus [9]): 100%
- Suppression (Mus musculus [10]): 100%
- No. of survivals [11]: 2
- No. of survivals [12]: 0

SMILES: C=C(c1ccc(-c2ccccc2)cc1)C1COC2(CCC(Nc3cc(Cl)cc(Cl)c3)CC2)OO1 (stereo not given)
- MST (Mus musculus [1]): 7 days
- MST (Mus musculus [2]): 10.2 days
- Suppression (Mus musculus [3]): 46%
- Suppression (Mus musculus [4]): 65%
- No. of survivals [5]: 0
- No. of survivals [6]: 0

SMILES: C=C(c1ccc(-c2ccccc2)cc1)C1COC2(CCC(Nc3cccc4ccccc34)CC2)OO1 (stereo not given)
- MST (Mus musculus [1]): 6.6 days
- MST (Mus musculus [2]): 14.8 days
- Suppression (Mus musculus [13]): inactive
- Suppression (Mus musculus [4]): 100%
- No. of survivals [5]: 0
- No. of survivals [6]: 0

SMILES: C=C(c1ccc(-c2ccccc2)cc1)C1COC2(CCC(Nc3ccc(OC)cc3)CC2)OO1 (stereo not given)
- MST (Mus musculus [1]): 8.4 days
- MST (Mus musculus [2]): 11.1 days
- Suppression (Mus musculus [3]): 57%
- Suppression (Mus musculus [4]): 94%
- No. of survivals [5]: 0
- No. of survivals [6]: 0

SMILES: C=C(c1ccccc1)C1COC2(CCC(=O)CC2)OO1 (stereo not given)
- MST (Mus musculus [1]): 11.6 days
- MST (Mus musculus [2]): 7.2 days
- Suppression (Mus musculus [3]): 99%
- Suppression (Mus musculus [4]): 7%
- No. of survivals [5]: 0
- No. of survivals [6]: 0

SMILES: C=C(c1ccccc1)C1COC2(CCC(Nc3cc(Cl)cc(Cl)c3)CC2)OO1 (stereo not given)
- MST (Mus musculus [1]): 12.4 days
- MST (Mus musculus [2]): 16.5 days
- Suppression (Mus musculus [3]): 62%
- Suppression (Mus musculus [4]): 100%
- No. of survivals [5]: 0
- No. of survivals [6]: 2

SMILES: C=C(c1ccccc1)C1COC2(CCC(Nc3cccc4ccccc34)CC2)OO1 (stereo not given)
- MST (Mus musculus [1]): 9.2 days
- MST (Mus musculus [2]): 19.5 days
- Suppression (Mus musculus [3]): 44%
- Suppression (Mus musculus [4]): 100%
- No. of survivals [5]: 0
- No. of survivals [6]: 0

SMILES: CCO[C@H]1O[C@@H]2O[C@@]3(C)CC[C@H]4[C@H](C)CC[C@@H]([C@H]1C)[C@@]24OO3 [ARTEMOTIL]
- MST (Mus musculus [7]): 17.75 days
- MST (Mus musculus [8]): >28 days
- Suppression (Mus musculus [9]): 100%
- Suppression (Mus musculus [10]): 100%
- No. of survivals [11]: 5
- No. of survivals [12]: 1

SMILES: C=C(c1ccccc1)C1COC2(CCC(Nc3ccccc3)CC2)OO1 (stereo not given)
- MST (Mus musculus [1]): 13.4 days
- MST (Mus musculus [2]): 12.2 days
- Suppression (Mus musculus [3]): 60%
- Suppression (Mus musculus [4]): 95%
- No. of survivals [5]: 0
- No. of survivals [6]: 0

SMILES: C=C(c1ccc(-c2ccccc2)cc1)C1COC2(CCC(Nc3ccccc3)CC2)OO1 (stereo not given)
- MST (Mus musculus [7]): 13.4 days
- MST (Mus musculus [8]): 14.5 days
- MST (Mus musculus [1]): 10.7 days
- MST (Mus musculus [2]): >28 days
- Suppression (Mus musculus [10]): 100%
- Suppression (Mus musculus [4]): 100%
- Suppression (Mus musculus [14]): 98%
- Suppression (Mus musculus [15]): 72%
- No. of survivals [11]: 3
- No. of survivals [5]: 0
- No. of survivals [6]: 5
- No. of survivals [12]: 0
